The values below are quoted from earlier work in patent US12263217B2, “Nucleic acid stabilizing solution for vaccines, therapy, diagnostics, storage, and transport” (Daykin Molecular Systems, LLC, priority 2020, dated 2025).

As to tris(hydroxymethyl)aminomethane, the doses well tolerated (in vivo) is reported as 3.6 grams/50 kg body weight. For the same substance, under “parenteral”, the doses clinically used is reported as “up to 500 mg/kg weight”.
